Assay results published in PubChem BioAssay (NCI).
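Grown in 96-well plates, cells were treated for 48 hours with each compound at five concentrations. Insufficient inhibition: endpoint recorded as highest concentration tested. Definition used: TGI = concentration required for complete inhibition of growth.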

Experiments:
Experiment in all cases: growth of human tumour cells (NCI), 48 h
[1] = system: 786-0 renal
[2] = system: A549 NSCLC
[3] = system: ACHN renal
[4] = system: BT-549 breast
[5] = system: CAKI-1 renal
[6] = system: CCRF-CEM leukemia
[7] = system: COLO 205 colon
[8] = system: DU-145 prostate
[9] = system: EKVX NSCLC
[10] = system: HCC-2998 colon
[11] = system: HCT-116 colon
[12] = system: HCT-15 colon
[13] = system: HL-60(TB) leukemia
[14] = system: HOP-62 NSCLC
[15] = system: HOP-92 NSCLC
[16] = system: HS 578T breast
[17] = system: HT29 colon
[18] = system: IGROV1 ovarian
[19] = system: K-562 leukemia
[20] = system: KM12 colon
[21] = system: LOX IMVI melanoma
[22] = system: M14 melanoma
[23] = system: MALME-3M melanoma
[24] = system: MCF7 breast
[25] = system: MDA-MB-231 breast
[26] = system: MDA-MB-435
[27] = system: MDA-N
[28] = system: MOLT-4 leukemia
[29] = system: NCI-H226 lung
[30] = system: NCI-H23 lung
[31] = system: NCI-H460 lung
[32] = system: NCI-H522 lung
[33] = system: NCI/ADR-RES ovarian
[34] = system: OVCAR-3 ovarian
[35] = system: OVCAR-4 ovarian
[36] = system: OVCAR-5 ovarian
[37] = system: OVCAR-8 ovarian
[38] = system: PC-3 prostate
[39] = system: RPMI-8226 leukemia
[40] = system: RXF 393 renal
[41] = system: SF-268 CNS
[42] = system: SF-295 CNS
[43] = system: SF-539 CNS
[44] = system: SK-MEL-2 melanoma
[45] = system: SK-MEL-28 melanoma
[46] = system: SK-MEL-5 melanoma
[47] = system: SK-OV-3 ovarian
[48] = system: SN12C renal
[49] = system: SNB-19 CNS
[50] = system: SNB-75 CNS
[51] = system: SR leukemia
[52] = system: SW-620 colon
[53] = system: T-47D breast
[54] = system: TK-10 renal
[55] = system: U251 CNS
[56] = system: UACC-257 melanoma
[57] = system: UACC-62 melanoma
[58] = system: UO-31 renal

In the case of `S=C(N/N=C\c1ccccn1)N(Cc1ccccn1)Cc1ccccn1`, the TGI [1] was 13.3 µM, the TGI [2] was over 42 µM and the TGI [3] was 5.13 µM. For the same compound, the TGI [4] was 12.9 µM, the TGI [5] was 14.6 µM and the TGI [6] was over 100 µM. For the same compound, the TGI [7] was 23.9 µM, the TGI [8] was 19.7 µM and the TGI [9] was 17.2 µM. The TGI [10] was over 43.1 µM, the TGI [11] was 16.5 µM and the TGI [12] was over 43.2 µM. For the same compound, the TGI [13] was over 100 µM, the TGI [14] was 41.7 µM and the TGI [15] was 11.4 µM. The TGI [16] was over 74.4 µM, the TGI [17] was 16.2 µM and the TGI [18] was 11.2 µM. For the same compound, the TGI [19] was over 100 µM, the TGI [20] was 23.5 µM and the TGI [21] was 12.6 µM. It also gave a TGI [22] of 43.7 µM, a TGI [23] of 16.9 µM and a TGI [24] of over 100 µM. For the same compound, the TGI [25] was over 49 µM, the TGI [26] was 41.8 µM and the TGI [27] was 47.9 µM. It also gave a TGI [28] of 19.4 µM, a TGI [29] of 1.78 µM and a TGI [30] of 14.5 µM. It also gave a TGI [31] of over 44 µM, a TGI [32] of 33.1 µM and a TGI [33] of 5.2 µM. It also gave a TGI [34] of over 48.7 µM, a TGI [35] of 18.7 µM and a TGI [36] of 63.9 µM. The TGI [37] was 12.7 µM, the TGI [38] was 32.9 µM and the TGI [39] was over 38.8 µM. It also gave a TGI [40] of 32.2 µM, a TGI [41] of 30.9 µM and a TGI [42] of 16.3 µM. For the same compound, the TGI [43] was over 100 µM, the TGI [44] was 37.9 µM and the TGI [45] was over 49.7 µM. The TGI [46] was 16.8 µM, the TGI [47] was 17.9 µM and the TGI [48] was 25.7 µM. For the same compound, the TGI [49] was 21.9 µM, the TGI [50] was 20.2 µM and the TGI [51] was over 39 µM. It also gave a TGI [52] of over 51.3 µM, a TGI [53] of over 40.4 µM and a TGI [54] of 17.6 µM. For the same compound, the TGI [55] was over 40 µM, the TGI [56] was 39.5 µM and the TGI [57] was over 23.1 µM. It also gave a TGI [58] of 7.87 µM.
Compound `COc1cc(/C=N\NC(=O)C[N+](C)(C)C)cc(OC)c1OC` has a TGI [1] of over 10 µM, a TGI [2] of over 10 µM and a TGI [3] of over 10 µM. It also gave a TGI [4] of over 10 µM, a TGI [5] of over 10 µM and a TGI [6] of over 10 µM. The TGI [7] was over 10 µM, the TGI [8] was over 10 µM and the TGI [10] was over 10 µM. It also gave a TGI [11] of over 10 µM, a TGI [12] of over 10 µM and a TGI [13] of over 10 µM. For the same compound, the TGI [14] was over 10 µM, the TGI [15] was over 10 µM and the TGI [16] was over 10 µM. It also gave a TGI [17] of over 10 µM, a TGI [18] of over 10 µM and a TGI [19] of over 10 µM. It also gave a TGI [20] of over 10 µM, a TGI [21] of over 10 µM and a TGI [22] of over 10 µM. For the same compound, the TGI [23] was over 10 µM, the TGI [24] was over 10 µM and the TGI [25] was over 10 µM. The TGI [26] was over 10 µM, the TGI [27] was over 10 µM and the TGI [28] was over 10 µM. It also gave a TGI [30] of over 10 µM, a TGI [32] of over 10 µM and a TGI [33] of over 10 µM. The TGI [34] was over 10 µM, the TGI [35] was over 10 µM and the TGI [36] was over 10 µM. The TGI [37] was over 10 µM, the TGI [38] was over 10 µM and the TGI [39] was over 10 µM. The TGI [41] was over 10 µM, the TGI [42] was over 10 µM and the TGI [43] was over 10 µM. The TGI [45] was over 10 µM, the TGI [46] was over 10 µM and the TGI [47] was over 10 µM. It also gave a TGI [48] of over 10 µM, a TGI [49] of over 10 µM and a TGI [50] of over 10 µM. It also gave a TGI [51] of over 10 µM, a TGI [52] of over 10 µM and a TGI [53] of over 10 µM. The TGI [54] was over 10 µM, the TGI [55] was over 10 µM and the TGI [56] was over 10 µM. It also gave a TGI [57] of over 10 µM.
Compound `N#CC1(c2ccccc2)CCN(C2(c3ccccc3)CCCCC2)CC1` has a TGI [1] of over 100 µM, a TGI [2] of over 100 µM and a TGI [3] of over 100 µM. The TGI [4] was over 100 µM, the TGI [5] was over 100 µM and the TGI [6] was over 100 µM. The TGI [7] was over 100 µM, the TGI [8] was over 100 µM and the TGI [9] was over 100 µM. It also gave a TGI [10] of over 100 µM, a TGI [11] of over 100 µM and a TGI [12] of over 100 µM. The TGI [13] was over 100 µM, the TGI [14] was over 100 µM and the TGI [16] was over 100 µM. For the same compound, the TGI [17] was over 100 µM, the TGI [18] was over 100 µM and the TGI [19] was over 100 µM. The TGI [20] was over 100 µM, the TGI [21] was over 100 µM and the TGI [22] was over 100 µM. It also gave a TGI [23] of over 100 µM, a TGI [24] of over 100 µM and a TGI [25] of over 100 µM. The TGI [26] was over 100 µM, the TGI [27] was over 100 µM and the TGI [28] was over 100 µM. The TGI [29] was over 100 µM, the TGI [30] was over 100 µM and the TGI [33] was over 100 µM. It also gave a TGI [34] of over 100 µM, a TGI [35] of over 100 µM and a TGI [36] of over 100 µM. For the same compound, the TGI [37] was over 100 µM, the TGI [38] was over 100 µM and the TGI [39] was over 100 µM. The TGI [40] was over 100 µM, the TGI [41] was over 100 µM and the TGI [42] was over 100 µM. The TGI [44] was over 100 µM, the TGI [45] was over 100 µM and the TGI [46] was over 100 µM. The TGI [47] was over 100 µM, the TGI [48] was over 100 µM and the TGI [49] was over 100 µM. The TGI [50] was over 100 µM, the TGI [51] was over 100 µM and the TGI [52] was over 100 µM. For the same compound, the TGI [53] was over 100 µM, the TGI [54] was over 100 µM and the TGI [55] was over 100 µM. For the same compound, the TGI [56] was over 100 µM, the TGI [57] was over 100 µM and the TGI [58] was over 100 µM.
Work on `CCCCc1ccc(-n2sc3ncccc3c2=O)cc1` yielded a TGI [1] of 25.2 µM, a TGI [2] of 99.4 µM and a TGI [3] of 23.5 µM. For the same compound, the TGI [4] was 35.7 µM, the TGI [7] was 33.3 µM and the TGI [8] was over 100 µM. It also gave a TGI [9] of 25.2 µM, a TGI [10] of 33.7 µM and a TGI [11] of 26.3 µM. The TGI [12] was 19.9 µM, the TGI [13] was 6.07 µM and the TGI [14] was 36.2 µM. It also gave a TGI [16] of 43.2 µM, a TGI [17] of 33.1 µM and a TGI [18] of 33.3 µM. The TGI [20] was 32.5 µM, the TGI [21] was 43.6 µM and the TGI [22] was 26.8 µM. For the same compound, the TGI [23] was 14.9 µM, the TGI [24] was 72.2 µM and the TGI [25] was 32 µM. For the same compound, the TGI [26] was 37.5 µM, the TGI [27] was 29.3 µM and the TGI [28] was 57.7 µM. For the same compound, the TGI [29] was 64.2 µM, the TGI [30] was 41.9 µM and the TGI [31] was 26 µM. It also gave a TGI [32] of 8.4 µM, a TGI [33] of 43.9 µM and a TGI [34] of 42.5 µM. For the same compound, the TGI [35] was 58 µM, the TGI [36] was 40.6 µM and the TGI [37] was 45.7 µM. It also gave a TGI [38] of 25.5 µM, a TGI [39] of over 100 µM and a TGI [41] of 47.4 µM. The TGI [42] was 31.2 µM, the TGI [43] was 41 µM and the TGI [44] was 43.9 µM. It also gave a TGI [45] of 33.1 µM, a TGI [46] of 26.4 µM and a TGI [47] of 90.5 µM. The TGI [48] was 37.7 µM, the TGI [49] was over 100 µM and the TGI [50] was 50.3 µM. For the same compound, the TGI [51] was 60.4 µM, the TGI [52] was 72.1 µM and the TGI [53] was 45.7 µM. For the same compound, the TGI [54] was 27.4 µM, the TGI [55] was 42.7 µM and the TGI [56] was 43.7 µM. The TGI [57] was 43.9 µM and the TGI [58] was 34.7 µM.
